For the experiment, the system named is acetic acid-induced colitis. In words: acetic acid-induced colitis in rats: oxidative stress markers (PCC, TBARS) in colonic tissue. The following applies: for activity compared with 5-ASA and lipoic acid: acetic acid-induced rat colitis; for TBARS (thiobarbituric acid reactive substrates), Pre-treatment / PCC (tissue protein carbonyl content), Pre-treatment: administered 10 minutes before induction of colitis; for TBARS (thiobarbituric acid reactive substrates), Pre-treatment / PCC (tissue protein carbonyl content), Pre-treatment / TBARS (thiobarbituric acid reactive substrates), Post-treatment / PCC (tissue protein carbonyl content), Post-treatment: 5-ASA 100 mg/kg, LA 50 mg/kg, compounds 1 and 7 50 mg/kg, sacrificed 24 hr post induction; for TBARS (thiobarbituric acid reactive substrates), Pre-treatment: control 18 ± 4, AA alone 187 ± 14; for PCC (tissue protein carbonyl content), Pre-treatment: control 261 ± 27, AA alone 1687 ± 98; for TBARS (thiobarbituric acid reactive substrates), Post-treatment / PCC (tissue protein carbonyl content), Post-treatment: administered 30 minutes after induction of colitis; for TBARS (thiobarbituric acid reactive substrates), Post-treatment: control 15 ± 3, AA alone 163 ± 14; for PCC (tissue protein carbonyl content), Post-treatment: control 273 ± 21, AA alone 1587 ± 95; for treated rats compared with control healthy rats (PCC, TBARS): results of the table, P<0.05.

The record followed here is patent US20060264408A1, “Sod minic multifunctional compounds for treating inflammatory bowel disease” (priority 2003, published 2006).

Take `Cc1cc(O)c(C(=O)O)cc1/N=N\c1ccc2c(c1)C(C)(C)N([O])C2(C)C` [Compound 1]: the “activity compared with 5-ASA and lipoic acid” value was “more active than either of LA or ASA used separately or even simultaneously”; the “TBARS (thiobarbituric acid reactive substrates), Pre-treatment” value (“TBARS … Pre-treatment” for short) is 27 ± 4; the “PCC (tissue protein carbonyl content), Pre-treatment” value (from here on “PCC … Pre-treatment”) is 293 ± 33; the “TBARS (thiobarbituric acid reactive substrates), Post-treatment” value (“TBARS … Post-treatment” below) is reported as 18 ± 3. Besides, the “PCC (tissue protein carbonyl content), Post-treatment” value (from here on “PCC … Post-treatment”) came to 278 ± 32 and the “treated rats compared with control healthy rats (PCC, TBARS)” value is “statistically indifferent from control healthy rats”.
On to `O=C(O)c1cc2[nH]c(CCCCC3CCSS3)nc2cc1O` (stereo not drawn) [Compound 7], for which the “activity compared with 5-ASA and lipoic acid” value was “more active than either of LA or ASA used separately or even simultaneously”; the “TBARS … Pre-treatment” value was found to be 21 ± 3; the “PCC … Pre-treatment” value is recorded as 284 ± 26; the “TBARS … Post-treatment” value was 19 ± 2. Further, the “PCC … Post-treatment” value is reported as 269 ± 28 and the “treated rats compared with control healthy rats (PCC, TBARS)” value was “statistically indifferent from control healthy rats”.
For `Nc1ccc(O)c(C(=O)O)c1` [Compound 5-ASA, 5-aminosalicylic acid, reference compound], the “TBARS … Pre-treatment” value was determined as 89 ± 9; the “PCC … Pre-treatment” value is given as 959 ± 48; the “TBARS … Post-treatment” value was determined as 74 ± 9; the “PCC … Post-treatment” value stood at 873 ± 79.
For the compound `O=C(O)CCCC[C@@H]1CCSS1` (racemic) [lipoic acid, reference compound], the “activity compared with 5-ASA and lipoic acid” value is “as effective as 5-ASA”; the “TBARS … Pre-treatment” value is 73 ± 8; the “PCC … Pre-treatment” value is given as 867 ± 73; the “TBARS … Post-treatment” value is listed as 64 ± 8. In addition, the “PCC … Post-treatment” value amounted to 713 ± 31.
